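Exposure lasted 48 hours, with cells grown in 96-well plates and compounds tested at five concentrations. GI50: concentration for 50% inhibition of growth. TGI denotes the concentration required for complete inhibition of growth.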
Experiments:
Assay in all cases: inhibition of tumour cell growth, NCI panel, 48 h; in the data active = GI50 below about 0.43 µM; inactive = the rest
MOLT-4 leukemia = tested on: MOLT-4 leukemia
HOP-62 NSCLC = tested on: HOP-62 NSCLC
PC-3 prostate = tested on: PC-3 prostate
MDA-MB-231 breast = tested on: MDA-MB-231 breast
LOX IMVI melanoma = tested on: LOX IMVI melanoma
OVCAR-5 ovarian = tested on: OVCAR-5 ovarian
786-0 renal = tested on: 786-0 renal
NCI-H226 lung = tested on: NCI-H226 lung
COLO 205 colon = tested on: COLO 205 colon
MALME-3M melanoma = tested on: MALME-3M melanoma
NCI-H460 lung = tested on: NCI-H460 lung
CCRF-CEM leukemia = tested on: CCRF-CEM leukemia
KM12 colon = tested on: KM12 colon
SR leukemia = tested on: SR leukemia
IGROV1 ovarian = tested on: IGROV1 ovarian
HS 578T breast = tested on: HS 578T breast
NCI-H522 lung = tested on: NCI-H522 lung
SK-MEL-5 melanoma = tested on: SK-MEL-5 melanoma
DU-145 prostate = tested on: DU-145 prostate
EKVX NSCLC = tested on: EKVX NSCLC
SNB-19 CNS = tested on: SNB-19 CNS
NCI/ADR-RES ovarian = tested on: NCI/ADR-RES ovarian
SF-295 CNS = tested on: SF-295 CNS
SK-MEL-2 melanoma = tested on: SK-MEL-2 melanoma
HCC-2998 colon = tested on: HCC-2998 colon
UACC-257 melanoma = tested on: UACC-257 melanoma
SK-MEL-28 melanoma = tested on: SK-MEL-28 melanoma
HOP-92 NSCLC = tested on: HOP-92 NSCLC
OVCAR-8 ovarian = tested on: OVCAR-8 ovarian
K-562 leukemia = tested on: K-562 leukemia
SNB-75 CNS = tested on: SNB-75 CNS
UACC-62 melanoma = tested on: UACC-62 melanoma
NCI-H23 lung = tested on: NCI-H23 lung
OVCAR-3 ovarian = tested on: OVCAR-3 ovarian
SW-620 colon = tested on: SW-620 colon
HT29 colon = tested on: HT29 colon
BT-549 breast = tested on: BT-549 breast
U251 CNS = tested on: U251 CNS
UO-31 renal = tested on: UO-31 renal
MDA-MB-435 = tested on: MDA-MB-435
HCT-15 colon = tested on: HCT-15 colon
TK-10 renal = tested on: TK-10 renal
M14 melanoma = tested on: M14 melanoma
SN12C renal = tested on: SN12C renal
HCT-116 colon = tested on: HCT-116 colon
ACHN renal = tested on: ACHN renal
A549 NSCLC = tested on: A549 NSCLC
SF-539 CNS = tested on: SF-539 CNS
CAKI-1 renal = tested on: CAKI-1 renal
MCF7 breast = tested on: MCF7 breast
SF-268 CNS = tested on: SF-268 CNS
T-47D breast = tested on: T-47D breast
A498 renal = tested on: A498 renal
SK-OV-3 ovarian = tested on: SK-OV-3 ovarian
OVCAR-4 ovarian = tested on: OVCAR-4 ovarian
RPMI-8226 leukemia = tested on: RPMI-8226 leukemia

Cc1cc2c(cc1Cl)SC1=NN(C)C(C)N1S2(=O)=O (configuration not stated)
> 100 µM: TGI (MOLT-4 leukemia) | TGI (HOP-62 NSCLC) | TGI (PC-3 prostate) | TGI (MDA-MB-231 breast) | TGI (LOX IMVI melanoma) | TGI (OVCAR-5 ovarian) | TGI (786-0 renal) | TGI (NCI-H226 lung) | TGI (COLO 205 colon) | TGI (MALME-3M melanoma) | TGI (NCI-H460 lung) | TGI (CCRF-CEM leukemia) | TGI (KM12 colon) | TGI (SR leukemia) | TGI (IGROV1 ovarian) | TGI (HS 578T breast) | TGI (NCI-H522 lung) | TGI (SK-MEL-5 melanoma) | TGI (DU-145 prostate) | TGI (EKVX NSCLC) | TGI (SNB-19 CNS) | TGI (NCI/ADR-RES ovarian) | TGI (SF-295 CNS) | TGI (SK-MEL-2 melanoma) | TGI (HCC-2998 colon) | TGI (UACC-257 melanoma) | TGI (SK-MEL-28 melanoma) | TGI (OVCAR-8 ovarian) | TGI (K-562 leukemia) | TGI (SNB-75 CNS) | TGI (UACC-62 melanoma) | TGI (NCI-H23 lung) | TGI (OVCAR-3 ovarian) | TGI (SW-620 colon) | TGI (HT29 colon) | TGI (BT-549 breast) | TGI (U251 CNS) | TGI (UO-31 renal) | TGI (MDA-MB-435) | TGI (HCT-15 colon) | TGI (TK-10 renal) | TGI (M14 melanoma) | TGI (SN12C renal) | TGI (HCT-116 colon) | TGI (ACHN renal) | TGI (A549 NSCLC) | TGI (SF-539 CNS) | TGI (CAKI-1 renal) | TGI (MCF7 breast) | TGI (SF-268 CNS) | TGI (T-47D breast) | TGI (A498 renal) | TGI (SK-OV-3 ovarian) | TGI (OVCAR-4 ovarian) | TGI (RPMI-8226 leukemia)
80.9 µM: TGI (HOP-92 NSCLC)
inactive: GI50 (MOLT-4 leukemia) 71 µM | GI50 (HOP-62 NSCLC) > 100 µM | GI50 (PC-3 prostate) > 100 µM | GI50 (MDA-MB-231 breast) > 100 µM | GI50 (LOX IMVI melanoma) > 100 µM | GI50 (OVCAR-5 ovarian) > 100 µM | GI50 (786-0 renal) > 100 µM | GI50 (NCI-H226 lung) > 100 µM | GI50 (COLO 205 colon) > 100 µM | GI50 (MALME-3M melanoma) > 100 µM | GI50 (NCI-H460 lung) > 100 µM | GI50 (CCRF-CEM leukemia) > 100 µM | GI50 (KM12 colon) > 100 µM | GI50 (SR leukemia) 39.2 µM | GI50 (IGROV1 ovarian) > 100 µM | GI50 (HS 578T breast) > 100 µM | GI50 (NCI-H522 lung) 88.8 µM | GI50 (SK-MEL-5 melanoma) > 100 µM | GI50 (DU-145 prostate) > 100 µM | GI50 (EKVX NSCLC) > 100 µM | GI50 (SNB-19 CNS) > 100 µM | GI50 (NCI/ADR-RES ovarian) > 100 µM | GI50 (SF-295 CNS) > 100 µM | GI50 (SK-MEL-2 melanoma) > 100 µM | GI50 (HCC-2998 colon) > 100 µM | GI50 (UACC-257 melanoma) > 100 µM | GI50 (SK-MEL-28 melanoma) > 100 µM | GI50 (HOP-92 NSCLC) 19.3 µM | GI50 (OVCAR-8 ovarian) > 100 µM | GI50 (K-562 leukemia) > 100 µM | GI50 (SNB-75 CNS) 35.3 µM | GI50 (UACC-62 melanoma) > 100 µM | GI50 (NCI-H23 lung) > 100 µM | GI50 (OVCAR-3 ovarian) > 100 µM | GI50 (SW-620 colon) > 100 µM | GI50 (HT29 colon) > 100 µM | GI50 (BT-549 breast) 96.5 µM | GI50 (U251 CNS) > 100 µM | GI50 (UO-31 renal) > 100 µM | GI50 (MDA-MB-435) > 100 µM | GI50 (HCT-15 colon) > 100 µM | GI50 (TK-10 renal) > 100 µM | GI50 (M14 melanoma) > 100 µM | GI50 (SN12C renal) > 100 µM | GI50 (HCT-116 colon) > 100 µM | GI50 (ACHN renal) > 100 µM | GI50 (A549 NSCLC) > 100 µM | GI50 (SF-539 CNS) > 100 µM | GI50 (CAKI-1 renal) > 100 µM | GI50 (MCF7 breast) 36 µM | GI50 (SF-268 CNS) 98.1 µM | GI50 (T-47D breast) 95.8 µM | GI50 (A498 renal) > 100 µM | GI50 (SK-OV-3 ovarian) > 100 µM | GI50 (OVCAR-4 ovarian) 74.8 µM | GI50 (RPMI-8226 leukemia) > 100 µM

Reference: PubChem BioAssay (NCI)
